From patent publication US10517870B2, “Aryl substituted bicycle heteroaryl compounds” (Bristol-Myers Squibb Company, priority 2015, dated 2019)

Columns and labels:
[1] = tested on: C33A (HPV−) cells; test: Cell proliferation/viability assay, C33A cells; assay type: cell-based; details: Homo sapiens, C-33-A, 96 h, read-out: C33A (HPV−) Proliferation IC50 (μM)
Experimental: (§1) Caski (catalog number CRL-1550), SiHa (catalog number HTB-35), C33A (catalog number HTB-31), Saos-2 (ATCC HTB-85), and Hela (catalog number CCL-2) cells were obtained from the American Type Culture Collection (ATCC). The human cervical carcinoma cell lines Caski. SiHa, Hela and C33A, and the human osteosarcoma cell line Saos-2, and the human keratinocyte cell line HaCaT were cultured in Dulbecco's Modified Eagle Medium (DMEM, Invitrogen catalog number 11965-092) supplemented with 10% fetal bovine serum. The colorectal carcinoma cell line HCT-116 was cultured in Roswell Park Memorial Institute-1640 Medium (Invitrogen catalog number 11875-093) supplemented with 10% FBS. All cells were incubated at 37° C. in a humidified atmosphere with 5% CO2 in air. To establish the SCHPV-18 cell line, one million primary neonatal human foreskin keratinocytes (Invitrogen, catalog no. C-001-5C), cultured in KBM Gold-keratinocvte cell basal medium (Lonza, catalog no. 192060), were electroporated with 5 μg HPV-18 plasmid DNA (ATCC catalog no. 45152D) using the Amaxa Nucleofector II on setting T-007. Cells were co-transfected with 2 μg plasmid pZSGreen1-N1 (Clontech catalog no. 632448) encoding G418 resistance, and cells were selected for four days in 100 μg/ml G418, after which selection was removed. Cells were maintained in culture six months prior to compound testing. Integration of the HPV 18 genome was confirmed by Southern blot. Control cells transfected in parallel with pZSGreen1-N1 alone became senescent four days after selection and the culture could not be expanded. SCHPV-18 cells were maintained in E medium (Fehrmann F, Laimins L A. Human papillomavirus type 31 life cycle: methods for study using tissue culture models. Methods Mol Biol 2005; 292:317-330).
(§2) For proliferation assays, cells were plated in white polystyrene 96-well plates (Costar catalog number 3917) for CellTiter Glo viability assays or 96-well special optics plates (Costar cat #3614) for CellTiter Blue viability assays. Cells were plated in the appropriate growth medium without antibiotics. Two hours after cell plating, a 200× compound stock diluted in DMSO was added to a final concentration of 0.5%. Plates were incubated at 37° C., for 4 days and then cell viability was assessed using either CellTiter Blue (Promega catalog number G8081) or CellTiter Glo (Promega catalog number G7572) according to the manufacturer's instructions. For the CellTiter Blue viability assay, data was collected using the SpectraMax Gemini EM (Molecular Devices) with an excitation wavelength of 530 nm and emission wavelength of 590 nm. For the CellTiter Glo viability assay, data was collected using the Envision Mulitlabel Reader (Perkin Elmer catalog number 2104-0010). To calculate IC50 and EC50 values, percent inhibition curves were fit using a four-parameter logistic formula [y=A+[…]], where A and B denote minimal and maximal % inhibition, respectively, C is the IC50 value, D is the Hill slope, and x represents compound concentration.
(§3) Table C, below, sets out the results obtained employing various compounds of the invention tested for their effects on proliferation of such cells. Caski or SiHa cells, transformed by HPV 16, Hela cells, transformed by HPV 18, or HPV-negative control cell lines (Saos-2 or C33a) were treated with various compounds. […] Unlike the HPV-negative Saos-2 or C33a cell lines, the HPV-transformed cell lines rely on the presence of HPV for their continued proliferation. Therefore, a comparison of IC50 values from HPV-transformed cell lines with IC50 values obtained from HPV-negative cell lines can be used to test for compound selectivity.

[2] = tested on: Saos-2 (HPV−) cells; test: Cell proliferation/viability assay, Saos-2 cells; assay type: cell-based; details: Homo sapiens, SAOS-2, 96 h, read-out: Saos-2 (HPV−) Proliferation IC50 (μM)
Experimental: as §1, §2, §3

COc1ccc(-c2cc(C)cc3nc(OC(F)F)cnc23)cc1 [Example 6, 2-(difluoromethoxy)-5-(4-methoxyphenyl)-7-methylquinoxaline]
IC50 [1]: 44.8 µM
IC50 [2]: 48 µM
